Laboratory results as given in patent publication US20240285644A1, “ASSESSING AND TREATING PROSTATE CANCER” (Mayo Foundation for Medical Education and Research, priority 2021, published 2024).
“Also recorded” adds a separate entry of the source.

Columns and labels:
[1] = test system: LNCaP cells; test: Quantitative colony forming assay, cell survival of antiandrogen-sensitive LNCaP cells; type: cell-based; settings: for cell survival of LNCaP cells: increasing concentrations of recombinant human NRG-1, vehicle versus enzalutamide (3 μM)
Text: It was next examined whether NRG-1 polypeptides differentially affect antiandrogen-sensitive and resistant prostate cancer cells. Antiandrogen-sensitive LNCaP prostate cancer cells express androgen receptor, whereas antiandrogen-resistant Du145 and PC3 cells express very limited androgen receptor (FIG. 3A).
The paradoxical toxic and salutary effects of NRG-1 polypeptides on antiandrogen-sensitive versus antiandrogen-resistant cells mirrors the outcomes in CSPC and CRPC patients, respectively.
LNCaP cells were then transfected with control shRNA versus shRNA targeting HER3 (FIG. 8A). Knockdown of HER3 rescued LNCaP cells from NRG-1- and enzalutamide-induced cell death (FIG. 7D and FIG. 8B). Relatedly, knockdown of HER2—but not HER4—reduces or eliminates Du145 cell benefit from NRG-1 polypeptide treatment (FIG. 8C-8D). To further confirm that HER2/HER3 heterodimerization can mediate a pro-survival response to NRG-1 polypeptides in CRPC, LNCaP cells were treated with lapatinib that induces HER2/HER3 heterodimerization.

[2] = test system: NRG-1; test: Blood levels of NRG-1 in patients with cancer before and during PARP inhibitor treatment; type: in vivo, human; settings: two patients with cancer (001 niraparib, 002 olaparib), Day 0 versus Days 7, 14
Protocol: Blood levels of NRG-1 of five patients with cancer were measured prior to and during treatment with PARP inhibitors.

SMILES: CNC(=O)c1ccc(N2C(=S)N(c3ccc(C#N)c(C(F)(F)F)c3)C(=O)C2(C)C)cc1F [enzalutamide]
- cell survival of LNCaP cells [1]: function in an additive manner
- cell survival of LNCaP cells ([1]; listed as Enz): induced death of LNCaP cells in an additive fashion

SMILES: CS(=O)(=O)CCNCc1ccc(-c2ccc3ncnc(Nc4ccc(OCc5cccc(F)c5)c(Cl)c4)c3c2)o1 [lapatinib]
- effect of pre-treatment on NRG-1- and antiandrogen-mediated death of LNCaP cells ([1]; pre-treatment with lapatinib, then NRG-1 and enzalutamide): rescues LNCaP cells from antiandrogen enzalutamide and NRG-1; also recorded: abolished NRG-1- and antiandrogen-mediated cell death

SMILES: NC(=O)c1cccc2cn(-c3ccc([C@@H]4CCCNC4)cc3)nc12 [niraparib]
- blood levels of NRG-1 [2]: reduced over the course of treatment

SMILES: O=C(c1cc(Cc2n[nH]c(=O)c3ccccc23)ccc1F)N1CCN(C(=O)C2CC2)CC1 [olaparib]
- blood levels of NRG-1 [2]: reduced over the course of treatment
- blood levels of NRG-1 ([2]; listed as Olaparib): reduced
